Measurements: PubChem BioAssay (NCI)
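Dose response: 5 concentrations. Exposure: 48 h. Format: 96-well plates. Endpoint: linear interpolation; highest concentration if not reached. At the GI50, growth is halved. TGI denotes the concentration required for complete inhibition of growth.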

Tests used:
Test in all cases: growth of human tumour cells (NCI), 48 h
COLO 205 colon = tested on: COLO 205 colon
HCT-15 colon = tested on: HCT-15 colon
HOP-92 NSCLC = tested on: HOP-92 NSCLC
MOLT-4 leukemia = tested on: MOLT-4 leukemia
NCI-H23 lung = tested on: NCI-H23 lung
NCI-H460 lung = tested on: NCI-H460 lung
SF-539 CNS = tested on: SF-539 CNS
SK-MEL-28 melanoma = tested on: SK-MEL-28 melanoma
SN12C renal = tested on: SN12C renal
OVCAR-4 ovarian = tested on: OVCAR-4 ovarian

Row | Compound | TGI (COLO 205 colon) [µM] | TGI (HCT-15 colon) [µM] | TGI (HOP-92 NSCLC) [µM] | TGI (MOLT-4 leukemia) [µM] | TGI (NCI-H23 lung) [µM] | TGI (NCI-H460 lung) [µM] | TGI (SF-539 CNS) [µM] | TGI (SK-MEL-28 melanoma) [µM] | TGI (SN12C renal) [µM] | TGI (OVCAR-4 ovarian) [µM] | GI50 (COLO 205 colon) [µM] | GI50 (HCT-15 colon) [µM] | GI50 (MOLT-4 leukemia) [µM] | GI50 (NCI-H23 lung) [µM] | GI50 (NCI-H460 lung) [µM] | GI50 (OVCAR-4 ovarian) [µM] | GI50 (SF-539 CNS) [µM] | GI50 (SK-MEL-28 melanoma) [µM] | GI50 (SN12C renal) [µM]
1 | CCOP(=O)(COCCn1nc(Br)c(=O)[nH]c1=O)OCC | > 100 | > 100 | > 100 | > 100 | > 100 | > 100 | > 100 | > 100 | > 100 | – | – | – | – | – | – | – | – | – | –
2 | O=C1C=CC(=O)c2c(O)c(N3CCN(c4ncccn4)CC3)c(Cl)c(O)c21 | 3.36 | – | 4.72 | 5.5 | 4.59 | > 47.6 | 3.63 | 4.57 | 3.43 | 3.69 | – | – | – | – | – | – | – | – | –
3 | CN(C)C(=O)/N=C1\SC(=Nc2ccccc2)C(=Nc2ccccc2)N1c1ccc([N+](=O)[O-])cc1 | > 100 | > 100 | – | > 100 | > 100 | > 100 | – | > 100 | > 100 | – | – | – | – | – | – | – | – | – | –
4 | CSc1ncnc2c1cnn2Cc1cn(COCC(O)CO)nn1 (stereo not given) | > 100 | > 100 | > 100 | > 100 | > 100 | – | > 100 | > 100 | > 100 | > 100 | – | – | – | – | – | – | – | – | –
5 | O=C1c2cc3c(cc2-c2c1c1cc(F)c(F)cc1c(=O)n2C[C@H](O)CO)OCO3 | 1.2 | 1.74 | – | > 100 | 0.613 | 0.141 | 0.14 | 7.15 | 0.324 | > 100 | 0.103 | 0.19 | 0.0317 | 0.0611 | 0.031 | 0.423 | 0.0288 | 0.28 | 0.033
6 | Cc1ccc(S(=O)(=O)N2CCc3cc(O)c([N+](=O)[O-])cc32)cc1 | > 100 | > 100 | – | > 100 | > 100 | – | > 100 | > 100 | > 100 | > 100 | – | – | – | – | – | – | – | – | –
7 | CCC(C)C(NC(=O)C(CCCC[N+](=N)N)NC(=O)C(CCCC[N+](=N)N)NC(=O)c1ccc(OC)cc1)C(=O)NC(CCCC[N+](=N)N)C(=O)N1CCCC1C(=O)NC(CCCCN)C(=O)NC(CC(C)C)C(N)=O (stereo not given) | > 100 | > 100 | – | > 100 | > 100 | > 100 | > 100 | > 100 | > 100 | > 100 | – | – | – | – | – | – | – | – | –
8 | CC(Br)CN(CC(C)Br)c1ccc2c(c1)Cc1ccccc1-2 (stereo not given) | 27.5 | 27.7 | 20.9 | 34.6 | 26.9 | 9.23 | – | 37.3 | 26.7 | 25.9 | – | – | – | – | – | – | – | – | –
9 | CC1=NN(c2cccc(Cl)c2)C2(C1=Cc1ccc(N(C)C)cc1)C(Cl)C(=O)N2c1nc2ccccc2s1 (stereo not given) | – | > 100 | 64.7 | > 100 | > 100 | > 100 | > 100 | > 100 | – | > 100 | – | – | – | – | – | – | – | – | –
10 | O=c1ccn([C@@H]2C=C(CO)[C@@H](O)[C@H]2O)c(=O)[nH]1 | > 625 | > 625 | > 625 | – | > 625 | > 625 | > 625 | > 625 | > 625 | > 625 | – | – | – | – | – | – | – | – | –
11 | CCOC(=O)c1c(-c2ccc(OC)cc2)c(C#N)c(=S)n(C2OC(CO)C(O)C(O)C2O)c1C (stereo not given) | > 100 | > 100 | > 100 | > 100 | > 100 | – | > 100 | > 100 | > 100 | > 100 | – | – | – | – | – | – | – | – | –
12 | COC(=O)c1ccc2cc(O)ccc2c1 | > 100 | > 100 | > 100 | > 100 | > 100 | – | > 100 | > 100 | > 100 | > 100 | – | – | – | – | – | – | – | – | –
13 | CC1=[N+]([O-])C2(CCCC2)N(O)C1(C)C | > 100 | > 100 | > 100 | – | > 100 | > 100 | > 100 | > 100 | > 100 | > 100 | – | – | – | – | – | – | – | – | –
14 | CC12CCC(=O)[C@@]1(C)CCCC2=O (stereo not given in full) | > 100 | > 100 | – | > 100 | > 100 | > 100 | > 100 | > 100 | > 100 | > 100 | – | – | – | – | – | – | – | – | –
15 | O=C(/C=C/CC(O)(c1ccccc1)c1ccccc1)Nc1ccccc1Cl | > 100 | > 100 | > 100 | > 100 | > 100 | > 100 | – | > 100 | > 100 | > 100 | – | – | – | – | – | – | – | – | –
16 | Oc1ccc(C[C@@H]2CN[C@H](Cc3ccc(O)c(Br)c3)CN2)cc1 | > 100 | > 100 | > 100 | > 100 | > 100 | – | > 100 | > 100 | > 100 | > 100 | – | – | – | – | – | – | – | – | –

Row | Compound | TGI (COLO 205 colon) [µM] | TGI (HCT-15 colon) [µM] | TGI (HOP-92 NSCLC) [µM] | TGI (MOLT-4 leukemia) [µM] | TGI (NCI-H23 lung) [µM] | TGI (NCI-H460 lung) [µM] | TGI (SF-539 CNS) [µM] | TGI (SK-MEL-28 melanoma) [µM] | TGI (SN12C renal) [µM] | TGI (OVCAR-4 ovarian) [µM] | GI50 (COLO 205 colon) [µM] | GI50 (HCT-15 colon) [µM] | GI50 (MOLT-4 leukemia) [µM] | GI50 (NCI-H23 lung) [µM] | GI50 (NCI-H460 lung) [µM] | GI50 (OVCAR-4 ovarian) [µM] | GI50 (SF-539 CNS) [µM] | GI50 (SK-MEL-28 melanoma) [µM] | GI50 (SN12C renal) [µM]
17 | CC1=CC(O)CC(C)(C)C1/C=C/C(C)=C/C=C/C(C)=C/C=C/C=C(C)/C=C/C=C(C)/C=C/C1=C(C)CC(O)CC1(C)C (stereo not given) | 38 | 34.4 | 41 | > 100 | 56.9 | > 100 | – | 31.4 | – | 66.9 | – | – | – | – | – | – | – | – | –
18 | COc1ccc(CCn2ccc(=O)c(O)c2C)cc1OC | > 100 | > 100 | 80.5 | > 100 | > 100 | 31.2 | 73.9 | – | – | – | – | – | – | – | – | – | – | – | –
19 | CC(=O)OC1COC(N2c3ccccc3[C@@H]3CCc4c([nH]c5ccccc45)[C@@H]32)C(OC(C)=O)C1OC(C)=O (mixture of isomers) | > 100 | > 100 | > 100 | > 100 | > 100 | > 100 | – | > 100 | > 100 | > 100 | – | – | – | – | – | – | – | – | –
20 | CN1C2CCC1C(CO)C(=O)C2 (stereo not given) | 32.8 | 75.3 | > 100 | 59.5 | > 100 | > 100 | 52.9 | > 100 | – | > 100 | – | – | – | – | – | – | – | – | –
21 | COc1cccc(Nc2nc3c([nH]2)c(=O)n(C)c(=O)n3C)c1 | > 10 | > 10 | > 10 | > 10 | > 10 | – | – | > 10 | > 10 | > 10 | – | – | – | – | – | – | – | – | –
22 | C=C1C[C@@H]2CC[C@@]34CC5O[C@H]6C(O[C@H]7CC[C@H](CC(=O)O[C@@H]8[C@@H](C)[C@@H]9O[C@@H]%10C[C@]%11(C[C@@H]%12O[C@]%13(C[C@H](C)[C@@H]%14O[C@@H]%15CC(C(COC(C)=O)OC(C)=O)O[C@@H]%15C[C@@H]%14O%13)C[C@H](C)[C@@H]%12O%11)O[C@@H]%10C[C@@H]9O[C@H]8CC8O[C@@H](CC[C@@H]1O2)C[C@@H](C)C8(O)CO)O[C@@H]7[C@@H]6O3)[C@H]5O4 (stereo not given in full) | > 1 | > 1 | > 1 | > 1 | 0.997 | > 0.955 | – | > 1 | > 1 | > 1 | – | – | – | – | – | – | – | – | –
23 | CCc1nc2c([nH]1)C(=O)c1ccccc1C2=O | – | > 100 | – | > 100 | > 100 | > 100 | > 100 | > 100 | > 100 | > 100 | – | – | – | – | – | – | – | – | –
24 | O=C1CCC(CCc2nc3ccccc3[nH]2)(c2ccccc2)C(=O)N1 (stereo not given) | > 100 | > 100 | > 100 | – | > 100 | > 100 | > 100 | > 100 | > 100 | > 100 | – | – | – | – | – | – | – | – | –
25 | C=CCN(c1cc(OC)c2[nH]c(C(=O)O)c(C)c2c1[N+](=O)[O-])S(C)(=O)=O | > 100 | > 100 | – | > 100 | > 100 | > 100 | > 100 | > 100 | > 100 | > 100 | – | – | – | – | – | – | – | – | –
26 | Nc1cc2nc(-c3ccccc3)cn2cn1 | > 100 | > 100 | – | > 100 | > 100 | > 100 | > 100 | > 100 | > 100 | > 100 | – | – | – | – | – | – | – | – | –
27 | Cn1c(=O)c2[nH]c(Nc3cccc(Cl)c3)nc2n(C)c1=O | > 10 | > 10 | 6.56 | > 10 | > 10 | – | – | > 10 | > 10 | > 10 | – | – | – | – | – | – | – | – | –
28 | CC1CCc2sc3[nH]c(=S)n(C)c(=O)c3c2C1 (stereo not given) | > 100 | > 100 | 44.5 | > 100 | > 100 | > 100 | – | > 100 | > 100 | > 100 | – | – | – | – | – | – | – | – | –
29 | COc1ccccc1Cn1c2c(c3cc(O)ccc31)C(=O)c1ccccc1C2=O | > 100 | > 100 | – | > 100 | 95.8 | > 100 | 57.6 | > 100 | > 100 | 12 | – | – | – | – | – | – | – | – | –
30 | O=C(O[C@@H](/C=C/c1ccccc1)P1(=O)N(Cc2ccccc2)[C@@H]2CCCC[C@H]2N1Cc1ccccc1)c1ccccc1 | 4.55 | > 100 | 5.52 | – | 9.22 | > 100 | > 100 | > 100 | 40.8 | 6.33 | – | – | – | – | – | – | – | – | –
31 | CCC1(c2ccc(OC)c(OC)c2)CCN2C(=O)C(O)CC21 (stereo not given) | > 100 | > 100 | – | > 100 | > 100 | > 100 | – | > 100 | > 100 | > 100 | – | – | – | – | – | – | – | – | –
32 | CN(C)CCN1C(=O)N(CCN(C)C)c2c3cc(O)ccc3nc3c([N+](=O)[O-])ccc1c23 | 23.3 | 20.8 | 37.3 | – | 36.6 | 26.4 | – | 58.5 | 23.6 | 28.4 | – | – | – | – | – | – | – | – | –
